≈ marks a conversion by molar mass, not a printed value.
How the values were obtained:
[1] = system: superoxide radicals (O2^-) released from the peritoneal macrophage cells of guinea pig; experiment: Inhibitory effect against superoxide radicals (O2^-) released from the peritoneal macrophage cells of guinea pig by stimulation (FMLP); assay type: cell-based; conditions: Cavia porcellus, Peritoneal macrophage cell; guinea pig peritoneal macrophages 2×10^6 cells/ml; FMLP 10^-7 M; cytochrome C reduction, OD550
Procedure: Inhibitory effect against superoxide radicals (O2^-) released from the peritoneal macrophage cells of guinea pig by stimulation:
Mineral oil (15 ml)was intraperitoneally administered to a guinea pig, then 96 hours after the administration, the peritoneal macrophage cells were sampled.
Superoxide radicals (O2^-) were determined by means of reduction of cytochrome C method according to the procedure described in an article written by T. Matsumoto, K. Takeshige and S. Minakami: Biochemical and Biophysical Research Communications, Vol. 88, No. 3, pp. 974-979, (1979).
Into 1 ml of 80 μM-cytochrome C solution, the peritoneal macrophage cells were added to make the final concentration of 2×10^6 cells/ml, then each one of the test compounds of the present invention was added thereto to make the test group sample. On the other hand, water was added in place of the test compound of the present invention to make the control group sample. Each of the test group samples and the control group samples were subjected to pre-incubation at 37° C. for 1 minute.
As to the stimulating agent for releasing superoxide radicals (O2^-), FMLP (formylmethionyl leucyl phenylalanine)was added to each one of the test sample solutions and the control group samples to make the final concentration of FMLP to 10^-7 M, then the sample solutions were subjected to additional reaction by incubation for 1 minute.
Difference between the optical absorbances measured at 550 nm (OD550) of both test group samples and control group samples were determined, the 50% inhibitory concentration (IC50) was obtained by calculating as the ratio of OD550 of the test group sample to that of the control group sample.

[2] = system: rat mesangial cell proliferation; experiment: Inhibitory effects on rat mesangial cell proliferation (interleukin-1β induced 3H-thymidine incorporation); assay type: cell-based, SD-strain rat; conditions: 1 ng/ml interleukin-1β, read-out: Rate of inhibition; for inhibition at 3 µg/mL: concentration 3 μg/ml; for inhibition at 10 µg/mL: concentration 10 μg/ml
Procedure: Inhibitory effects on rat mesangial cell proliferation
The kidney of SD-strain rat was aseptically taken out by excision. and the renal cortex was cut out therefrom. The renal glomeruli were isolated by use of sieve. The glomeruli were cultivated in RPMI1640 culture medium [which contains 10% of FBS (fetal bovine serum)] for 4 weeks. Thus obtained cells were used as mesangial cells.
An experiment of incorporation of thymidine by interleukin-1β was conducted by procedures according to the method of Ganz [Michael B. Ganz; Mary C. Perfetto and Walter F. Boron: American Journal of Physiology, Vol. 259, F269-F278, (1990)]. Thus, 2×10^4 cells/ml of mesangial cells were scattered on a 48-well plate (0.5 ml/well), and the cells were cultivated in RPMI culture medium (which contains 10% of FBS) for 3 days. Then, the culture medium was changed to another RPMI culture medium in which the concentration of FBS was decreased from 10% to 0.5% and cultivated for 3 days. Next, the RPMI culture medium (containing 0.5% of FBS) was changed to other RPMI culture medium to which the test compound and 1 ng/ml of interleukin-1β were added. The cultivation was conducted for 24 hours, then 1 μCi/well of 3H-thymidine was added to the culture medium, and the cultivation was continued for additional 24 hours.
The amount of ^3 H-thymidine being incorporated into the mesangial cells was measured by use of a scintillation counter, and the rate of inhibition (%) in comparison of the test group vs. control group was calculated by the following formula:
Rate of inhibition (%)=[(C-D)/(C-E)]×100
C: the incorporated amount of ^3 H-thymidine in control group;
D: the incorporated amount of ^3 H-thymidine in the case of that test compound was added;
E: the incorporated amount of ^3 H-thymidine in the case of that interleukin-1β was not added.

[3] = system: passive Heymann nephritis of rat; experiment: Inhibitory effect against increase of urinary proteins in the passive Heymann nephritis of rat; assay type: in vivo, SD-strain male rats; conditions: oral, once a day for 7 days, urinary protein, 12th day
Procedure: Inhibitory effect against increase of urinary proteins in the passive Heymann nephritis of rat
SD-strain male rats (7 week old, body weight: 200-230 g)were used as test animals.
An antiserum which will induce passive Heymann nephritis of rat was prepared by procedures according to the method of T. S. Edington, et al. [T. S. Edington, R. J. Glassock and F. J. Dixon: Autologous immune complex nephritis induced with renal tublar antigen. I. Identification and isolation of the pathogenetic antigen. Journal of Experimental Medicine Vol. 127, pp. 555-572 (1968).] as follows:
At the first, an antigen (FX1A fraction) of the renaltublar brush border was sampled from the SD rat. Next, the antigen was admixed with Freund' complete adjuvant, then a New Zealand White rabbit was sensitized therewith. The sensitization procedures were conducted 3 times in every 2 weeks, and 2 weeks after the final sensitization, the blood sample was obtained from the rabbit. […]
Heymann nephritis of the rats were induced by injecting the above-mentionedantiserum to the tail vein of the test rats. […] The urine samples of the rat were taken in time sequentially from the 10th day after the injection, and the amount of urinary protein in the samples were determined. The rate of inhibitory effect (%) against the production of urinary protein performed by the test compound was calculated by the formula as follows: […]

[4] = system: releasing of hydrogen peroxide (H2 O2) from the neutrocyte of abdominal cavity of rat; experiment: Inhibitory effect against the releasing of hydrogen peroxide (H2O2) from the neutrocyte of abdominal cavity of rat; assay type: cell-based, SD-strain rat; conditions: rat neutrocytes 10^6 cells/ml; FMLP 2×10^-6 M; 37° C., 1 hour; OD610
Procedure: Inhibitory effect against the releasing of hydrogen peroxide (H2 O2) from the neutrocyte of abdominal cavity of rat
1%-Casein solution was administered to the abdominal cavity of a SD-strain rat, then 16 hours after the administration, the neutrocytes were obtained by washing the abdominal cavity. Thus obtained neutrocytes were washed with Hank's solution.
In to a reaction mixture consisting of the following ingredients:
______________________________________
HRP (Horse Radish peroxide)
HEPES [N-(2-Hydroxyethyl)pipera-
zine N'-2-ethanesulfonic acid]
Rat neutrocytes 10^6 cells/ml
the test compound was added, then the whole mixture was incubated at 37° C. for 1 hour, and the mixture was subjected to a centrifugal separation at 2,000 rpm for minutes. After the centrifugal separation, 1 ml of the supernatant was sampled and 10 μl of 1N-NaOH aqueous solution was added thereto. Then, the optical absorbance at 610 nm (OD610) of the supernatant was determined by means of using a spectro-photometer.
The IC50 (50% inhibitory concentration) of the test compound was obtained by calculating as the ratio of OD610 of the test group sample to that of the control group sample.

IC50 [4] [µg/mL] | Compound | IC50 [1] [µg/mL] | inhibition at 3 µg/mL [2] [%] | inhibition at 10 µg/mL [2] [%] | Rate of inhibitory effect ([3]; 20 mg/kg/day) [%] | Rate of inhibitory effect ([3]; 5 mg/kg/day) [%]
< 5 | CC(C)C[C@@H]1C(=O)N[C@H](Cc2cc(C(C)(C)C)c(O)c(C(C)(C)C)c2)C(=O)N1O (racemic) [Example 13, (3RS,6RS)-3-(3,5-di-tert-butyl-4-hydroxybenzyl)-1-hydroxy-6-isobutylpiperazine-2,5-dione] | 1.3 (≈ 3.21 µM) | 77.9 ± 8.3 | 122 ± 6.1 | 57.8 ± 6.1 | 
3 (≈ 8.69 µM) | CCOC(=O)C[C@@H]1NC(=O)[C@@H](Cc2c[nH]c3ccccc23)N(O)C1=O [Example 57] |  | 26.3 ± 5.8 | 56.7 ± 2.9 |  | 53.1 ± 15.1

Reference: US5607934A, “Piperazine derivatives and salts thereof” (Otsuka Pharmaceutical Co., Ltd., priority 1993, dated 1997)
